Test: Plasma hesperetin levels after ingestion (FIG. 2)
Format: in vivo
From the text: FIG. 2 is a graph comparing the plasma hesperetin levels depending on whether hesperetin-7-glucoside alone is ingested, whether hesperidin alone is ingested or whether a composition according to the present invention is consumed.
Without wishing to be bound by theory, it is thought that this is due to the presence of enzymes which are able to cleave the glucose moiety off, such that hesperetin is readily absorbable.
Without wishing to be bound by theory, it is thought that this is due to the presence of enzymes able to cleave the rutinose moiety of hesperidin only at a later stage of passage through the gastro-intestinal tract.
Thus, the compositions of the present invention advantageously provide a plasma level of hesperetin which is sustained over a longer period of time (cf. FIG. 2).
Indeed, after the ingestion of the compositions of the present invention, the hesperetin plasma levels are maintained for a sustained period of time (FIG. 2).

Row | plasma level of hesperetin (in vivo) | Structure (SMILES) | plasma level of hesperetin (after ingestion, FIG. 2)
1 | sharp peak shortly after ingestion | COc1ccc(C2CC(=O)c3c(O)cc(OC4OC(CO)C(O)C(O)C4O)cc3O2)cc1O (centres unmarked) [hesperetin-7-glucose, hesperetin-7-glucoside] | 
2 |  | COc1ccc([C@@H]2CC(=O)c3c(O)cc(O[C@@H]4O[C@H](CO[C@@H]5O[C@@H](C)[C@H](O)[C@@H](O)[C@H]5O)[C@@H](O)[C@H](O)[C@H]4O)cc3O2)cc1O [hesperidin] | appears only later and to a smaller extent

— patent US8475786B2, “Long-lasting absorption of flavonoids” (Nestec S.A., priority 2006, dated 2013)
